Consider one compound from publication PMC10975047, “Antimicrobial Activity of 2-(Piperazin-1-yl)naphtho[2,3-d]thiazole-4,9-dione against Staphylococcus Strains” (Molecules, 2024).

The IC50 is the concentration needed to halve the response being measured.

This assay concerns the target T1, DNA gyrase (Staphylococcus aureus, UniProt P0A0K8+P20831).
T1 construct: gene gyrA; with DNA gyrase subunit B (GyrB)
Kind of assay: DNA gyrase supercoiling assay (H19 dye fluorescence, ProFoldin kit). Type of assay: biochemical.

T1 sequence (P0A0K8 2-644): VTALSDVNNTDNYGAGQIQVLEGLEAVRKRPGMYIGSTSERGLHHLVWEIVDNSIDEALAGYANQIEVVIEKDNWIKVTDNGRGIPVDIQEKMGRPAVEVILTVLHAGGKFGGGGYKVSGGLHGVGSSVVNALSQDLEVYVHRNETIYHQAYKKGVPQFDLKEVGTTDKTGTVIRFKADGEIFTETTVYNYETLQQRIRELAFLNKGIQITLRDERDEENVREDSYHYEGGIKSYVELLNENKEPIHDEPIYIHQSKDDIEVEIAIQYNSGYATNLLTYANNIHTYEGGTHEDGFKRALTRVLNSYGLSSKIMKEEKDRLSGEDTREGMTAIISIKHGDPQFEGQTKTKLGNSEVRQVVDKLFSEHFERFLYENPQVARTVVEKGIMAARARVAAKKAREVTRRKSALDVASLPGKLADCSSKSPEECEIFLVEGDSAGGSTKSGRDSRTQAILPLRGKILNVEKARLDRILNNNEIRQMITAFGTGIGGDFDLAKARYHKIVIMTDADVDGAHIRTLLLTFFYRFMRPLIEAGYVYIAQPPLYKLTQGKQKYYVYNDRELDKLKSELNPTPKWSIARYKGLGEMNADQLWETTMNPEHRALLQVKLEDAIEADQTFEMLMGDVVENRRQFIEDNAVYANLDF
T1 sequence (P20831 whole entry): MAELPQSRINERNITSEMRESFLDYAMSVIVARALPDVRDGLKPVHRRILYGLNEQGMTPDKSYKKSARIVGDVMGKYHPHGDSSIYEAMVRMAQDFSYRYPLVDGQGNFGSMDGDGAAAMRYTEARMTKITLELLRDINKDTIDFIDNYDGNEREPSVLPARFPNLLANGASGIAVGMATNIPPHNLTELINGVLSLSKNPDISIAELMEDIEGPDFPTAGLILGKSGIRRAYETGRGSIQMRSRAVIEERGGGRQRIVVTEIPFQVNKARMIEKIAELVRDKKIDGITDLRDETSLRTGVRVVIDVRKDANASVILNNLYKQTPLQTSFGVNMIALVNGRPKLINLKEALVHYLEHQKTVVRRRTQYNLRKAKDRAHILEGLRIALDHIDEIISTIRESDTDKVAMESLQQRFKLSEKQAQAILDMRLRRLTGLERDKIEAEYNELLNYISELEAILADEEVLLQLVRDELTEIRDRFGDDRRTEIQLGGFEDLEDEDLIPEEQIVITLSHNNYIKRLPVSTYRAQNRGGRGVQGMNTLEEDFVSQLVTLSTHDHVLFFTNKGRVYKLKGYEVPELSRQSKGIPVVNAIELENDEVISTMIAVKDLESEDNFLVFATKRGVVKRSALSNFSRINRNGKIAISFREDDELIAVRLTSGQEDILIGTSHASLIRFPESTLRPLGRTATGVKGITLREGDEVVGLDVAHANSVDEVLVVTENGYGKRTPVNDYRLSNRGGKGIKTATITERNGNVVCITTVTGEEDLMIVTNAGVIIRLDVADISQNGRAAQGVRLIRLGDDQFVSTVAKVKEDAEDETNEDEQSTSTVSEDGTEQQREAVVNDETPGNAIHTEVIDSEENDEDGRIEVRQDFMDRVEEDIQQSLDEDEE

`O=C1c2ccccc2C(=O)c2sc(N3CCNCC3)nc21` [PNT, 2-(piperazin-1-yl)naphtho[2,3-d]thiazole-4,9-dione] showed an IC50 of 372 µM.
